Experimental data published in PubChem BioAssay (NCI).
“And” between values parts separate entries of the source, which are not always exact repeats. Equal values may be shown once.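 96-well plates; 48 h exposure; 5 concentrations. Endpoints by linear interpolation between flanking doses. Not reached: highest tested concentration assigned. Here, GI50 denotes the concentration required for 50% inhibition of growth. TGI: total growth inhibition.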

Assays:
Test in all cases: NCI-60 cell line screen, 48 h
HCC-2998 colon = system: HCC-2998 colon
MALME-3M melanoma = system: MALME-3M melanoma
ACHN renal = system: ACHN renal
CAKI-1 renal = system: CAKI-1 renal
NCI-H23 lung = system: NCI-H23 lung
EKVX NSCLC = system: EKVX NSCLC
UO-31 renal = system: UO-31 renal
M14 melanoma = system: M14 melanoma
K-562 leukemia = system: K-562 leukemia
SK-MEL-28 melanoma = system: SK-MEL-28 melanoma
T-47D breast = system: T-47D breast
MDA-N = system: MDA-N

SMILES | TGI (HCC-2998 colon) | TGI (MALME-3M melanoma) [µM] | TGI (ACHN renal) | TGI (CAKI-1 renal) | TGI (NCI-H23 lung) [µM] | TGI (EKVX NSCLC) | TGI (UO-31 renal) | TGI (M14 melanoma) | TGI (K-562 leukemia) [µM] | TGI (SK-MEL-28 melanoma) | TGI (T-47D breast) | TGI (MDA-N) [µM] | GI50 (CAKI-1 renal) [nM] | GI50 (EKVX NSCLC) [nM] | GI50 (UO-31 renal) [nM] | GI50 (SK-MEL-28 melanoma) [nM] | GI50 (T-47D breast) [nM]
Cc1cc(C)c(-c2no/c(=N\S(=O)(=O)c3ccc(Cl)cc3)o2)c(C)c1 | > 100 µM | > 100 | > 100 µM | > 100 µM | > 100 | > 100 µM | > 100 µM | > 100 µM | > 100 | > 100 µM | > 100 µM | > 100 | – | – | – | – | –
O=[N+]([O-])c1cccc2nc3ccccc3c(NCCCCCNc3c4ccccc4nc4cccc([N+](=O)[O-])c34)c12 | 0.103 µM and 0.04 µM | 0.16 | 0.115 µM and 0.0165 µM | 0.278 µM and 0.0712 µM | 0.185 | 0.353 µM and 1.25 µM | 0.406 µM and 0.0604 µM | 0.198 µM and 0.024 µM | 0.678 | 0.455 µM and 0.241 µM | 0.837 µM and 2.24 µM | 0.191 | 19.9 | 34.6 | 19.2 | 55.9 | 121
Cc1cc(N(CCC#N)CCC#N)ccc1/C(N=Nc1ccccc1)=N\NC(=O)c1cc(Cl)ccc1O | 31.8 µM | 78.3 | 42.6 µM | > 100 µM | 35.1 | > 100 µM | 41.3 µM | > 100 µM | > 100 | – | 55.9 µM | > 100 | – | – | – | – | –
COC(CN(C)C(=S)Nc1cccc2ccccc12)OC | > 10 µM | > 10 | > 10 µM | > 10 µM | > 10 | > 10 µM | > 10 µM | > 10 µM | > 10 | > 10 µM | > 10 µM | > 10 | – | – | – | – | –
C[C@@H](CC(=O)OCc1ccccc1)OC1OC(COC(=O)C(C)(C)C)C(OC(=O)C(C)(C)C)C(OC(=O)C(C)(C)C)C1OC(=O)C(C)(C)C (stereo not given in full) | > 100 µM | > 100 | > 100 µM | > 100 µM | > 100 | > 100 µM | > 100 µM | > 100 µM | > 100 | > 100 µM | > 100 µM | > 100 | – | – | – | – | –
COC(=O)/C=C/c1ccc(OP(=O)(O)O)c(OC)c1 | > 100 µM | > 100 | > 100 µM | > 100 µM | > 100 | > 100 µM | > 100 µM | > 100 µM | – | > 100 µM | > 100 µM | > 100 | – | – | – | – | –
CC(C)C(Cl)CCC(C)(Cl)C(=O)CBr (stereo not given) | 33.1 µM | 23 | 19.3 µM | 14.3 µM | 21.8 | 32.8 µM | 15 µM | 11.3 µM | – | 16.3 µM | 6.27 µM | 7.25 | – | – | – | – | –
O=c1c(-c2ccccc2)nnc2n(Cc3ccccc3)c3ccccc3n12 | > 100 µM | > 100 | > 100 µM | > 100 µM | > 100 | > 100 µM | > 100 µM | > 100 µM | – | > 100 µM | > 100 µM | > 100 | – | – | – | – | –
S=C1Cc2c(-c3ccccc3)cc(-c3cccc(Cl)c3)nc2-c2ccccc2N1 | 18.7 µM | > 24.5 | 3.89 µM | 9.23 µM | 21.2 | 24.4 µM | 16.9 µM | > 49.7 µM | > 100 | 51.8 µM | 21.6 µM | 26.5 | – | – | – | – | –
Cc1ccc(S[C@@](C=O)(NC(=O)OCc2ccccc2)C(F)(F)F)cc1 | > 100 µM | 78.3 | – | 63.8 µM | 39.8 | 54 µM | 36.6 µM | 78.6 µM | > 100 | 67.1 µM | 71 µM | 58.5 | – | – | – | – | –
COc1ccc(CCCCNCc2cccc(CNCCCCc3ccc(OC)cc3)c2)cc1 | 0.922 µM | 3.6 | 3.47 µM | 3.63 µM | 3.37 | 3.42 µM | 2.68 µM | 3.5 µM | – | 3.73 µM | 4.35 µM | 4.25 | – | – | – | – | –
COC1(OC)CCc2c(sc3ncnc(Nc4cccc(Br)c4)c23)C1 | > 100 µM | > 100 | > 100 µM | > 100 µM | > 100 | 59.2 µM | > 100 µM | > 100 µM | > 100 | – | 65.6 µM | > 100 | – | – | – | – | –
CC(N)(CC(O)(C(F)(F)Cl)C(F)(F)Cl)C(=O)O (stereo not given) | > 10 µM | > 10 | > 10 µM | > 10 µM | > 10 | > 10 µM | > 10 µM | > 10 µM | > 10 | > 10 µM | > 10 µM | > 10 | – | – | – | – | –
COC(=O)[C@@H]1[C@@H]2NC(=S)N[C@@]1(C)Oc1ccccc12 | > 100 µM | > 100 | > 100 µM | > 100 µM | > 100 | > 100 µM | > 100 µM | > 100 µM | > 100 | > 100 µM | > 100 µM | 88.1 | – | – | – | – | –
CCCCCCCCCCCCCCCCCCNc1ccn(C2OC(COP(=O)(O)OCC3OC(n4ccc(N)nc4=O)C(O)C3O)C(O)C2O)c(=O)n1 (stereo not given) | > 100 µM | > 100 | > 100 µM | > 100 µM | > 100 | > 100 µM | > 100 µM | > 100 µM | > 100 | > 100 µM | > 100 µM | > 100 | – | – | – | – | –
COC1(OC)c2occc2C(=N)c2ccc(=O)oc21 | > 100 µM | 33.5 | > 100 µM | > 100 µM | > 100 | > 100 µM | > 100 µM | > 100 µM | > 100 | > 100 µM | > 100 µM | > 100 | – | – | – | – | –
Clc1ccc(C=Nc2ccc(Oc3ccc(Cl)cc3)c(Cl)c2)cc1 | 45.6 µM | 49.2 | > 100 µM | 86.2 µM | 54.2 | 70.2 µM | 24.8 µM | 46.9 µM | – | 61.5 µM | 89.8 µM | 38.8 | – | – | – | – | –
Cc1[nH]n(-c2nc3c(c(=O)[nH]2)CCCC3)c(=O)c1CCO | > 100 µM | > 100 | > 100 µM | > 100 µM | > 100 | > 100 µM | > 100 µM | > 100 µM | > 100 | > 100 µM | > 100 µM | > 100 | – | – | – | – | –
CCOc1cnc(C(O)(c2ccccc2)c2ccccc2)o1 | > 100 µM | > 100 | > 100 µM | > 100 µM | > 100 | > 100 µM | > 100 µM | > 100 µM | > 100 | > 100 µM | > 100 µM | > 100 | – | – | – | – | –
O=C(NCCN(CCNC(=O)c1cccc(O)c1O)CCNC(=O)c1cccc(O)c1O)c1cccc(O)c1O | > 60.2 µM | > 52.5 | > 67.7 µM | > 100 µM | > 57.4 | > 100 µM | > 100 µM | > 100 µM | > 100 | > 100 µM | > 89.7 µM | > 100 | – | – | – | – | –
C=CCC(CCC(C)=O)(C(=O)OCC)C(=O)OCC | > 100 µM | > 100 | > 100 µM | > 100 µM | > 100 | > 100 µM | > 100 µM | > 100 µM | > 100 | > 100 µM | > 100 µM | > 100 | – | – | – | – | –
Cc1c(C)c2c(c(N)c1C#N)C(=O)N(Cc1ccc(S(N)(=O)=O)cc1)C2=O | > 100 µM | > 100 | > 63.4 µM | > 100 µM | > 100 | > 100 µM | > 100 µM | > 73.6 µM | > 100 | > 100 µM | > 59.2 µM | > 100 | – | – | – | – | –
COC(=O)/C=C(\C(=O)OC)c1cc(C)c2cc(C(C)C)ccc(C)c1-2 | 87.5 µM | > 100 | > 100 µM | > 100 µM | > 100 | > 100 µM | > 100 µM | > 100 µM | > 100 | > 100 µM | > 100 µM | 46.3 | – | – | – | – | –
CCN(CC)CCNc1ccc([N+](=O)[O-])c2nc3ccc(OC)cc3c(NCCN(CC)CC)c12 | 2.01 µM | 5.07 | > 10 µM | 8.6 µM | 4.38 | 5.02 µM | 3.71 µM | > 5.3 µM | 1.38 | > 8.37 µM | > 10 µM | 2.39 | – | – | – | – | –
N#Cc1c(NC(=O)C(F)(F)F)sc2c3c(=O)c4ccccc4c(=O)c=3oc3ccccc3c12 | 31 µM | 13.1 | > 58 µM | 31.4 µM | 38.4 | 65.4 µM | 46.4 µM | > 61.7 µM | 75.3 | 51.5 µM | 59.3 µM | 36.5 | – | – | – | – | –
N#Cc1sc2nc3ccccc3n2c1N | > 100 µM | > 100 | > 100 µM | > 100 µM | > 100 | > 100 µM | > 100 µM | > 100 µM | – | > 100 µM | > 100 µM | > 100 | – | – | – | – | –
Cc1ccc(N=N/C(=N/NC(=O)c2ccccc2)c2ccc(N(CCC#N)CCC#N)cc2C)cc1 | > 100 µM | > 100 | > 100 µM | > 100 µM | > 100 | > 100 µM | > 100 µM | > 100 µM | > 100 | – | > 100 µM | > 100 | – | – | – | – | –
Cc1cc2nc3c(C#N)c(-c4ccccc4)/c(=C\Nc4ccc(F)cc4)c(=O)n3c2cc1C | > 100 µM | > 100 | > 100 µM | > 100 µM | > 100 | > 100 µM | > 100 µM | > 100 µM | – | > 100 µM | > 100 µM | > 100 | – | – | – | – | –
